Data reported in EPA's ToxValDB 9.5 (doi:10.2903/j.efsa.2016.4406).
Converted amounts (≈) assume the structure as drawn.

How the values were obtained:
Colinus virginianus = conditions: for LD50: acute, oral, mortality
Daphnia magna = conditions: chronic/long-term; duration: 21 days; reproduction
Folsomia candida = conditions: chronic/long-term; mortality
Oncorhynchus mykiss = conditions: acute, mortality
Rattus norvegicus = conditions: for LD50: acute, mortality
Tagia sp. = conditions: chronic/long-term; growth
Apis mellifera = conditions: acute, mortality
Chironomus tentans = conditions: chronic/long-term; duration: 24 days
Neomysis kadiakensis = conditions: chronic/long-term; duration: 28 days; reproduction
Pimephales promelas = conditions: chronic/long-term; duration: 266 days; reproduction

| Structure (SMILES) | LD50 (Colinus virginianus; diet) [mg/kg] | NOEC (Daphnia magna) [mg/L] | NOEC (Folsomia candida) [mg/kg] | LC50 (Oncorhynchus mykiss) [µg/mL] | LD50 (Rattus norvegicus) [mg/kg] | NOEC (Tagia sp.) [mg/kg] | LD50 (Rattus norvegicus; oral) [mg/kg] | NOAEL (Rattus norvegicus; subchronic, duration: 90 days, oral) [mg/kg-day] | LD50 (Apis mellifera; dermal) [µg/piece] | LD50 (Apis mellifera; oral, unspecified) [µg/piece] | NOEC (Chironomus tentans) [mg/L] | LD50 (Colinus virginianus) [mg/kg] | NOEL (Colinus virginianus; chronic, reproduction) [mg/kg-day] | NOEC (Neomysis kadiakensis) [mg/L] | LC50 (Oncorhynchus mykiss; duration: 96 hours) [µg/mL] | NOEC (Pimephales promelas) [mg/L] | NOAEL (Rattus norvegicus; chronic, body weight) [mg/kg-day] |
| --- | --- | --- | --- | --- | --- | --- | --- | --- | --- | --- | --- | --- | --- | --- | --- | --- | --- |
| CSC1=N[C@@](C)(c2ccccc2)C(=O)N1 | 723 | 16 | 250 | > 98 | 176 | 100 | – | – | – | – | – | – | – | – | – | – | – |
| CC1(c2ccccc2)NC(=O)NC1=O (configuration not stated) [5-Methyl-5-phenylhydantoin] | > 2500 | – | – | – | – | – | 1520 | 6.4 | – | – | – | – | – | – | – | – | – |
| CSC1=N[C@@](C)(c2ccccc2)C(=O)N1Nc1ccccc1 [(S)-1-Anilino-4-methyl-2-methylthio-4-phenylimidazolin-5-one] | > 1070 | – | 2.26 | – | > 2030 | 0.63 | – | – | 25.7 | > 93.3 | 0.05 | > 2000 | 133 | 0.0095 | 0.74 (≈ 2.38 µM) | 0.07 | 3.9 |
